Experimental data: BindingDB's records for patent US10508109 (ONCOTHERAPY SCIENCE, INC., 2019)

Biological target: Histone-lysine N-methyltransferase SUV39H2 (Human, UniProt Q9H5I1)
Assay: Suv 39H2 Assay
Procedure: Assay buffer (4 μL) was added into all the wells, including test compound and control wells (except for Sinefungin control wells), using the Multidrop Combi. The plate was centrifuged at 1000 rpm for 1 min. […] SUV39H2 (8 μL, final conc: optimized for each lot of the enzyme based on specific activity) was added by using the Multidrop Combi. The assay plate was centrifuged at 1000 rpm for 1 min. Assay buffer was used as background control, and incubated at room temperature for 3 hours. The reaction was stopped with 20 μL of 2.5 mg/mL Streptavidin SPA beads (final conc. 50 μg/well) in buffer using the Multidrop Combi and centrifuged for 1 min. The plate was loaded into the Trilux-Microbeta counter and a delayed read of 10 hours was made. The radioactive signal was measured at 1 min/well. Sinefungin and the internal standard compound were used as tool compounds to determine assay performance.

Histone-lysine N-methyltransferase SUV39H2, sequence (Q9H5I1 whole entry): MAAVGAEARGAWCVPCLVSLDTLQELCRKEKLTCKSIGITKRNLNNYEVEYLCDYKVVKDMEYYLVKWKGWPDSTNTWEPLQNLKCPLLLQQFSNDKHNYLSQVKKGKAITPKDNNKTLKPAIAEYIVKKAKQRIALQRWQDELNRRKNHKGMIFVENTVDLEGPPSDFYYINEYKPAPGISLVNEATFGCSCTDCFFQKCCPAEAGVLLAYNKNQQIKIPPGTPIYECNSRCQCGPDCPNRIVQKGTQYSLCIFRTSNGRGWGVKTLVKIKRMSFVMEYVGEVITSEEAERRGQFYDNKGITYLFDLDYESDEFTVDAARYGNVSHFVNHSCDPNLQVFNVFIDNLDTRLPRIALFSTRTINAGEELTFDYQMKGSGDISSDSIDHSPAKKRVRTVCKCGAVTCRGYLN

| SMILES | IC50 [nM] |
| --- | --- |
| COc1cc(CO)c(-c2cn3ccc(N4CCN(CCO)CC4)cc3n2)cc1Cl [US10508109, Example 43] | 8.54 |
| COc1cc(CO)c(-c2cn3ccc(C4=CCN(CCN5CCCCC5)CC4)cc3n2)cc1Cl [US10508109, Example 147] | 29.5 |
| COc1cc(CO)c(-c2cn3ccc(N(C)CCNC(=O)OC(C)(C)C)cc3n2)cc1Cl [US10508109, Example 48] | 12.4 |
| COc1cc(CO)c(-c2cn3ccc(N4CCC(NC(C)=O)C4)cc3n2)cc1Cl (stereo unspecified) [US10508109, Example 37] | 4.35 |
| CCCS(=O)(=O)NC1CCN(c2ccn3cc(-c4cc(Cl)c(OC)cc4CO)nc3c2)CC1 [US10508109, Example 174] | 10.4 |
| COc1cc(CO)c(-c2cn3ccc(N4CCC(NC(=O)CCNC(=O)OC(C)(C)C)C4)nc3n2)cc1Br (stereo unspecified) [US10508109, Example 65] | 14 |
| COc1cc(CO)c(-c2cn3ccc(N4CC[C@H](N)C4)cc3n2)cc1Cl [US10508109, Example 47] | 8.29 |
| COc1cc(CO)c(-c2cn3ccc(N4CCN(P(=O)(CO)OC)CC4)cc3n2)cc1Cl (stereo unspecified) [US10508109, Example 203] | 1.77 |
| COc1cc(CO)c(-c2cn3ccc(N4CCC(N)CC4)nc3n2)cc1Cl [US10508109, Example 42] | 79 |
| COc1cc(CO)c(-c2cn3ccc(OC4CCN(S(=O)(=O)c5cccs5)CC4)cc3n2)cc1Cl [US10508109, Example 280] | 71.1 |
| COc1cc(CO)c(-c2cn3ccc(N4CCN(CCNC(=O)OC(C)(C)C)CC4)cc3n2)cc1Cl [US10508109, Example 28] | 21 |
| COc1cc(CO)c(-c2cn3ccc(N4CCC(NS(=O)(=O)N(C)C)CC4)cc3n2)cc1Cl [US10508109, Example 181] | 13.9 |
| COc1cc(CO)c(-c2cn3ccc(N4CCC(NC(N)=O)C4)cc3n2)cc1Cl (stereo unspecified) [US10508109, Example 38] | 4.11 |
| COc1cc(CO)c(-c2cn3ccc(N4CCC(N5CCCS5(=O)=O)CC4)cc3n2)cc1Cl [US10508109, Example 182] | 6.97 |
| COc1cc(CO)c(-c2cn3ccc(N4CCN(S(=O)(=O)Cc5ccccc5)CC4)cc3n2)cc1Cl [US10508109, Example 179] | 32.2 |
| COc1cc(CO)c(-c2cn3ccc(N4CCN(S(=O)(=O)C(C)C)CC4)cc3n2)cc1Cl [US10508109, Example 178] | 14.3 |
